Data set [1] is described as follows: Intrinsic clearance (Cli) in mouse liver microsomes. The class given is in vitro ADME. To be noted: mouse liver microsome. An excerpt: (§1) inhibition at top, C= EC50, D= slope, x= inhibitor concentration and y= % inhibition. […]
(§2) reach 100% of inhibition, B was fixed to 100 only when at least 50% of inhibition was reached.
(§3) Plasmodium falciparum late stage (IV-V) gametocyte high content imaging assay Plasmodium falciparum NF54-pfs16-LUC-GFP stage IV-V Gametocytes were produced as described previously.5 Compounds were solubilized in DMSO and serially diluted in three concentrations per log standard curves in DM SO. One µl of compound was subsequently diluted in 25µl of water (4% DMSO) and 5µl transferred into the base of 384 well PerkinElmer CellCarrier plates. Forty-five µl of stage IV-V gametocytes (10%P in 0.1%H) were added to the imaging plates which were in turn sealed with a gas permeable membrane and incubated at 37°C, 5% CO 2, 5% O2, 90% N2 and 60% humidity […]
Post incubation, 5µl of MitoTracker® Red CM -H2Xros (MTR) solution (0.66ug/ml) was added to all wells and the plates incubated for a further 16hours. The assay plates were then imaged and the number of viable gametocytes determined for test compounds plus 0.4%DMSO and 5µM Puromycin.
(0.4%DMSO) control values. Percent inhibition was plotted against log compound concentration using a 4 parameter log dose, non-linear regression analysis, with sigmoidal dose response (variable slope) curve fit using Prizm 4.0. IC50 values were obtained from this curve fit. The compound testing was performed in duplicate point within two separate experiments.
Plasmodium berghei ookinete development assay
Assay was performed as previously reported.6 Briefly blood containing P. berghei CTRPp-GFP gametocytes was rapidly harvested from infected mice and introduced to test compounds pre-diluted in ookinete medium (to induce gamete formation and support ookinete development) in 96-well plates. Plates were incubated in the dark at 21°C for 22 hr before GFP fluorescence intensity measured in a plate reader. % inhibition of ookinete formation was calculated with reference to the fluorescence intensity values of a positive control (20 µM cycloheximide) and a solvent-only negative control (DMSO). All assays were performed in triplicate independent experiments and EC50 values calculated in Graphpad Prism.
The aqueous solubility of the test compounds was measured using laser nephelometry, as described previously.7 Compounds were subject to serial dilution from 10 mg/mL to 0.5 mg/mL in DMSO. An aliquot was then mixed with MilliQ water to obtain an aqueous dilution plate with a final concentration range of 100 – 5 μg/mL, with a final DMSO concentration of 1.0%. Triplicate aliquots were transferred to a flat bottomed polystyrene plate which was immediately read on the NEPHELOstar (BMG Lab Technologies). The amount of laser scatter caused by insoluble particulates (relative nephelometry units, RNU) was plotted against compound concentration using a segmental regression fit, with the point of inflection being quoted as the compounds aqueous solubility (μg/mL; […]
Intrinsic Clearance (Cli) experiments
The procedure was carried out as reported previously.7 Test compound (0.5 µM) was incubated with female CD1 mouse, male sprague-dawley rat or pooled human mixed gender liver microsomes (Xenotech LLC TM; 0.5 mg/mL 50 mM potassium phosphate buffer, pH 7.4) and the reaction initiated […]
by the addition of excess NADPH (8 mg/mL 50 mM potassium phosphate buffer, pH 7.4).
Immediately, at time zero, then at 3, 6, 9, 15 and 30 min an aliquot (50 μL) of the incubation mixture was removed and mixed with acetonitrile (100 μL) to stop the reaction. Internal standard was added to all samples, the samples centrifuged to sediment precipitated protein and the plates then sealed prior to UPLC-MS/MS analysis using a Quattro Premier XE (Waters Corporation, USA).
XLfit (IDBS, UK) was used to calculate the exponential decay and consequently the rate constant (k) from the ratio of peak area of test compound to internal standard at each timepoint. The rate of […]

The subject of data set [2] is Plasmodium falciparum strain 3D7. Put plainly: Plasmodium falciparum screening, SYBR green growth inhibition. In kind it is cell-based. The note with it: 3D7, supplementary csv, read-out: Pf (3D7) EC50. As to the method: Plasmodium falciparum screening
Assays against P. falciparum were conducted as previously described.1 Cultures of the widely-used malaria reference strain of chloroquine-sensitive Plasmodium falciparum strain 3D7 were maintained in a 5% suspension of human red blood cells (obtained from East of Scotland Blood Transfusion Service, Ninewells Hospital, Dundee) cultured in RPMI 1640 medium (pH 7.3) supplemented with 0.5% Albumax II (Gibco Life Technologies, San Diego, CA), 12 mM sodium bicarbonate, 0.2 mM hypoxanthine and 20 mg/L gentamicin at 37°C, in a humidified atmosphere of 1% O 2, 3% CO2 with a balance of nitrogen. Growth inhibition was quantified using a fluorescence assay utilising the binding of SYBR green to double stranded DNA, which emits a fluorescent signal at 528 nm after excitation at 485nm.2 Mefloquine (potency range 30-60 nM) was used as a drug control to monitor the quality of the assay (Z’ = 0.6 to 0.8, Signal to background >3, where Z’ is a measure of the discrimination between the positive and negative controls on a screen plate). A 96-well [3H]-Hypoxanthine incorporation assay was also developed as a secondary assay in order to validate compounds from the initial screen in an orthogonal platform.3 Compound bioactivity from both assays was expressed as […]
P. falciparum (panel of resistant strains) in vitro assay. (Swiss TPH)
All Plasmodium strains were cultured according to Trager and Jensen and are described at www.beiresources.org (resistant strains: K1, W2, 7G8, TM90C2A, D6 and V1/S, sensitive strain:
NF54). EC50 values were determined in vitro by measuring incorporation of the nucleic acid precursor […]
Mammalian Cell Growth Inhibition assay
A counter-screen against normal diploid human fibroblasts (MRC-5 cell line) was carried out to exclude non-selective, and toxic compounds. The assay was essentially carried out as described previously.4 Cells were plated and incubated overnight to allow them to adhere as monolayers. A working stock of each test compound was transferred to an intermediate 384-well plate and pre-diluted with minimum essential media (MEM). The pre-diluted stocks were then transferred onto the cell monolayers, and the plates were incubated for 68 h. Resazurin, to a final concentration of 50 μM, was added to each well, after which plates were incubated for a further 3 h and measured for fluorescence (λex=528 nm, λem=590 nm)
In vitro Cell Assay Data Analysis.
All data was processed using IDBS ActivityBase® raw data was converted into per cent inhibition through linear regression by setting the high inhibition control as 100% and the no inhibition control as 0%. Quality control criteria for passing plates were as follows: Z’> 0.5, S:B> 3, %CV(no inhibition < 15 . The formula used to calculate Z’ is 1 3× (St D e v _ hi gh + St D e v _ low) . […]
All EC50 Curve fitting was undertaken using XLFit version 4.2 using Model 205 with the following 4 parametric equation: y = A + B A A + ($-&) ,where A=% inhibition at bottom, B=% […]
as §1, §2, §3
Post incubation, 5µl of MitoTracker® Red CM -H2Xros (MTR) solution (0.66ug/ml) was added to all wells and the plates incubated for a further 16hours. […]

SMILES strings stand for the structures.

Turning to `O=C(NCCN1CCCC1)c1cc(NCCCN2CCOCC2)nc2ccc(F)cc12` [Compound 25, 6-Fluoro-2-((3-morpholinopropyl)amino)-N-(2-(pyrrolidin-1-yl)ethyl)quinoline-4-carboxamide], the “MLM Cli” value in data set [1] is 0.8 mL min^–1 g^–1.
For `O=C(NCCN1CCCC1)c1cc(NCCCCN2CCOCC2)nc2ccc(Cl)cc12` [Compound 27, 6-Chloro-2-((4-morpholinobutyl)amino)-N-(2-(pyrrolidin-1-yl)ethyl)quinoline-4-carboxamide], the EC50 in data set [2] was found to be 3.8 nM. Besides, the “MLM Cli” value in data set [1] worked out at 2.0 mL min^–1 g^–1.
Consider `O=C(NCCN1CCCC1)c1cc(NCCC2CCOCC2)nc2ccc(Cl)cc12` [Compound 30, 6-Chloro-N-(2-(pyrrolidin-1-yl)ethyl)-2-((2-(tetrahydro-2H-pyran-4-yl)ethyl)amino)quinoline-4-carboxamide], for which the “MLM Cli” value in data set [1] is 2 mL min^–1 g^–1.
Take `O=C(NCCN1CCCC1)c1cc(-c2ccc(S(=O)(=O)N3CCOCC3)cc2)nc2ccc(F)cc12` [Compound 38, 6-Fluoro-2-(4-(morpholinosulfonyl)phenyl)-N-(2-(pyrrolidin-1-yl)ethyl)quinoline-4-carboxamide]: the EC50 in data set [2] stood at 4.4 nM. In addition, the “MLM Cli” value in data set [1] stood at 1.9 mL min^–1 g^–1.
In the case of `O=C(NCCN1CCCC1)c1cc(-c2ccc(CN3CCOCC3)cc2F)nc2ccc(F)cc12` [Compound 41], the EC50 in data set [2] worked out at 1.9 nM. Moreover, the “MLM Cli” value in data set [1] was <0.5 mL min^–1 g^–1.
In the case of `O=C(NCCN1CCCC1)c1cc(-c2ccc(CN3CCOCC3)cc2Cl)nc2ccc(F)cc12` [Compound 42, 2-(2-Chloro-4-(morpholinomethyl)phenyl)-6-fluoro-N-(2-(pyrrolidin-1-yl)ethyl)quinoline-4-carboxamide], the “MLM Cli” value in data set [1] is on record as 0.5 mL min^–1 g^–1.
